Measurements as given in patent US20040106120A1, “Diagnosis and treatment of disease” (priority 2000, published 2004).

What was measured:
[1] = test system: reconstituted human epidermis cultures (skin equivalents); assay: Treatment of skin equivalents (reconstituted human epidermis cultures) for 16 hours, light microscopy histology; type: cell-based; details: 16 hours at 37° C; for effect of cytokine on stratum corneum thickness of skin equivalent: 2.5 ng/ml added to medium; for effect of peptide on stratum corneum of skin equivalent: 6 μM peptide, 200 μl applied to surface, versus buffered salt solution
Method: (§1) 1 ml of room temperature SkinEthic maintenance medium is added to each well of 6-well tissue culture plates (one well per skin equivalent). The cell culture inserts containing the skin equivalents are removed from the agarose transportation medium using sterile forceps and placed in the wells ensuring no air bubbles are formed. The well plates are placed in a humid incubator at 37° C., 5% CO2. After 24 hours the medium is changed and the appropriate treatment is applied. 200 μl of each treatment is applied to the surface of the skin equivalent as follows: Control—buffered salt solution; 10% foetal bovine serum; 0.25% chymotrypsin; 6 μM Peptide 643.
All reagents are made up to the correct concentration in a buffered salt solution comprising the following in 1 litre: 0.142 g Na2HPO4, 1.802 g Glucose, 7.149 g HEPES, 0.224 g KCl, 7.597 g NaCl, pH 7.4.
Treatments are allowed to act on the cultures for 16 hours at 37° C.
The skin equivalents and membranes are cut from the cell culture insert using a scalpel. The equivalents are fixed in 10% formalin (3.7% formaldehyde) in phosphate buffered saline for 24 hours at 4° C. Samples are washed in 3 changes of PBS. The PBS is the decanted from the samples which are dehydrated in 3×5 minute changes of 70% ethanol, 2×5 minute changes of 95% ethanol and 2×5 minute changes of 100% ethanol. The samples are then placed in xylene for 5 minutes and then molten paraffin for infiltration for 5 minutes. The samples are occasionally agitated during each of the steps. The equivalents are then oriented in more molten paraffin in an embedding mould and allowed to set for 1 hour.
5 μm sections are taken of each block and collected on glass microscope slides. The slides are dried at 50° C. overnight.
The slides are racked and placed in xylene for 2×5 minute washes to remove any unwanted paraffin. The slides are then rehydrated by placing them for 5 minutes in each of the following; 2×100% ethanol, 1×95% ethanol, 1×70% ethanol. The slides are then rinsed in running tap water for 1 minute. Staining is with Gill's haematoxylin (2 minutes) followed by rinsing in water for 2 minutes then placing in 1% eosin for 5 minutes and rinsing briefly in water. The samples are dehydrated once more by placing in 70% ethanol for 30 seconds, 95% ethanol for 30 seconds and 2 changes of 100% ethanol for 1 and 2 minutes each. The slides are then placed in xylene for 1 minute before mounting coverslips with DPX mountant for microscopy.
Slides are examined under light microscope at using the 40×objective lens and typical images are captured onto the PC using Synoptics Acquis Pro.
as §1, with “applied.” for “applied. 200 μl of each treatment is applied to the surface of the skin equivalent as follows: Control—buffered salt solution; 10% foetal bovine serum; 0.25% chymotrypsin; 6 μM Peptide 643.”
200 μl of the following treatments are applied to the surface of the skin equivalents: (1) Control—buffered salt solution; (2) 6 μM Peptide 641; (3) 6 μM Peptide 642; (4) 6 μM Peptide643; (5) 6 μM Peptide 651; (6) 6 μM Peptide 653.
The following treatments are diluted from stock solutions (10 μg/ml TNF-α, 1 μg/m IL-1β) directly into 1 ml of medium and added to the well during the medium change: (7) 2.5 ng/ml TNF-α; and (8) 75 ng/ml IL-1β.

[2] = biological target: chymotrypsin (Bos taurus, UniProt P00766); assay: Chymotrypsin proteolysis of synthetic corneodesmosin peptides; type: biochemical; details: peptide exposed to chymotrypsin in appropriate buffer
Excerpt: Peptides corresponding to fragments of corneodesmosin, and comprising amino acids at and around position 40 (L20815; corresponding to position 180 on the nucleotide sequence) are synthesised. The peptides are exposed to chymotrypsin in appropriate buffer, and the digestion products identified. Chymotrypsin is known to cleave the peptide bond C-terminal to a F, Y or W residue, but not C-terminal to an L residue.
Peptides P1 and P2 (size 38 amino acids, comprising L and F at position 40 of L20815 respectively) are exposed to chymotrypsin. Peptide P1 has the sequence PTRITSPNDPCL40[…], while peptide P2 has the sequence PTRITSPNDPCF40[…].
The above results are confirmed by using the ExPASy Molecular Biology Server at http://www.expasy.ch/.

[3] = test system: psoriatic skin biopsy (stratum corneum); assay: Treatment of skin biopsies from psoriatic patients with protease, transmission electron microscopy; set-up: species or system human; details: 0.25% chymotrypsin, 16 hours at 37° C, versus untreated half
Method: All biopsies are carried out by a dermatologist in an operating theatre. Aseptic technique is employed and sterile/disposable equipment used throughout the procedure. Two skin biopsies are taken from the lower back of each patient, one from an area of active plaque psoriasis and the other from an uninvolved site at least 10 cm away. The lower back is cleaned with antiseptic solution and local anaesthetic introduced to the intended areas of biopsy. Ellipses approximately 1.5 cm by 0.5 cm are excised from both lesional and non-lesional skin and placed in a container with PBS solution. The wounds are sutured using catgut for deep sutures and ethilon for superficial sutures (employing two or three stitches per wound). After the operation the wounds are covered with a sterile dressing and the patient observed for 30 minutes before being allowed home. Sutures are removed two weeks later.
The following procedures are performed under aseptic conditions: The psoriatic skin biopsy is cut into 2 pieces using a sterile scalpel. One half of the biopsy is placed in 2 ml of 0.25% chymotrypsin (diluted from a 10×stock in skin maintenance medium, Skinethic) in one well of a 24-well plate. The other half is incubated in 2 ml of maintenance medium with no additions. […]
Ultrathin sections (70-90 nm) are cut on an ultramicrotome. […] Electron micrographs are recorded on Agfa Scientia 23D56 EM film.

IL-1β: cytokine purchased from Calbiochem
effect of cytokine on stratum corneum thickness of skin equivalent [1]: increase in the thickness of the stratum corneum

NH2-cys-val-ser-pro-val-lys-ala-COOH (H-CVSPVKA-OH) [Peptide 643, fragment of SLPI (CVSPVKA)]
effect of peptide on stratum corneum of skin equivalent [1]: thickening of the stratum corneum

NH2-leu-asp-pro-val-asp-COOH [Peptide 651]
effect of peptide on stratum corneum of skin equivalent [1]: increase in the thickness of the stratum corneum

NH2-leu-asp-pro-val-asp-thr-pro-asn-pro-thr-arg-arg-lys-pro-gly-COOH [Peptide 653]
effect of peptide on stratum corneum of skin equivalent [1]: increase in the thickness of the stratum corneum

NH2-met-glu-asn-ser-leu-gly-pro-phe-pro-gln-cys-COOH (H-MENSLGPFPQC-OH) [Peptide 641, fragment of Desmocollin 1 (…)]
effect of peptide on stratum corneum of skin equivalent [1]: more permeable

NH2-ser-gly-lys-arg-asp-lys-ser-glu-glu-val-gln-cys-COOH (H-SGKRDKSEEVQC-OH) [Peptide 642, fragment of Desmoplakin (…)]
effect of peptide on stratum corneum of skin equivalent [1]: more permeable

PTRITSPNDPCF40TGKGDSSGFSGSSSSGSSISSAR [peptide P2]
products of proteolysis by chymotrypsin [2]: three small peptides

PTRITSPNDPCL40TGKGDSSGFSGSSSSGSSISSAR [peptide P1]
products of proteolysis by chymotrypsin [2]: two products of proteolysis

TNF-α
effect of cytokine on stratum corneum thickness of skin equivalent [1]: increase in the thickness of the stratum corneum

chymotrypsin
corneodesmosomes visible in stratum corneum [3]: far fewer corneodesmosomes are visible | stratum corneum morphology (corneocyte layers) [3]: splitting of the layers of corneocytes (acantholysis) | effect of protease on stratum corneum barrier of skin equivalent ([1]; applied to surface, chymotrypsin 0.25%): degrades the barrier of the stratum corneum
